Reference: ChEMBL document CHEMBL5154791, “Optimization of a Pyrimidinone Series for Selective Inhibition of Ca2+/Calmodulin-Stimulated Adenylyl Cyclase 1 Activity for the Treatment of Chronic Pain” (J Med Chem, 2022)
Values after ≈ are worked out from the molar mass of the structure shown. Active and inactive are the calls of the source. The rule behind the calls is not given here.

Key:
[1] = biological target: Adenylate cyclase type 1 (Homo sapiens, UniProt Q08828)
Description: Inhibition of Ca2+/ CAM stimulated human AC1 activity expressed in AC3 and AC6-knockout HEK293 cells assessed as A23187 stimulated cAMP accumulation incubated for 30 mins followed by A2318 stimulation in presence of IBMX for 1 hr by HTRF assay

[2] = biological target: T1, Adenylate cyclase type 8 (Homo sapiens, UniProt P40145); test: Inhibition of Ca2+/ CAM stimulated human AC8 activity expressed in AC3 and AC6-knockout HEK293 cells assessed as A23187 stimulated cAMP accumulation incubated for 30 mins followed by […] in presence of IBMX for 1 hr by HTRF assay; type: cell-based
[3] = biological target: T1, Adenylate cyclase type 8; test: Inhibition of Ca2+/ CAM stimulated human AC8 activity expressed in AC3 and AC6-knockout HEK293 cells assessed as A23187 stimulated cAMP accumulation incubated for 30 mins followed by […] in presence of IBMX for 1 hr by HTRF assay relative to control; type: cell-based; set-up: concentration or dose not given beside the values; conditions: time 90.0 min
[4] = biological target: T2, CYP1A2 (Homo sapiens, UniProt P05177); test: Inhibition of CYP1A2 (unknown origin) at 10 uM relative to control; type: ADME
T2 sequence (P05177 whole entry): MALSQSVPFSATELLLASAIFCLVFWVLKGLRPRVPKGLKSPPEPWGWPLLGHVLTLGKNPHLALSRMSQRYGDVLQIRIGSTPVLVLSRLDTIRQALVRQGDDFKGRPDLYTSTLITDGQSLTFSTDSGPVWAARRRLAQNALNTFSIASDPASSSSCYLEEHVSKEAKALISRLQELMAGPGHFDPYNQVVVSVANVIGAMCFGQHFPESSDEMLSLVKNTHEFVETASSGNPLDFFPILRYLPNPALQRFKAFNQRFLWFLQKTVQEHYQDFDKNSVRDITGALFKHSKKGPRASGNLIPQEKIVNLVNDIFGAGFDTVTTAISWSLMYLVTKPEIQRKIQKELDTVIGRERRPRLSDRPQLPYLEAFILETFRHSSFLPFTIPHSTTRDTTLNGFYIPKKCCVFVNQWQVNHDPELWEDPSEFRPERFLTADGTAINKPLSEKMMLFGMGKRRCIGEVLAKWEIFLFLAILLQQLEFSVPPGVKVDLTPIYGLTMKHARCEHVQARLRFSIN

[5] = Apparent permeability in MDCK-II cells; type: ADME, cell-based, Canis lupus familiaris; conditions: dog
[6] = biological target: Insulin receptor (Homo sapiens) (UniProt P06213); test: Inhibition of human recombinant IRK assessed as inhibition of phosphorylation activity at 10 uM using 33P-labeleled peptide substrate by radiometric scintillation counting assay relative to control
[7] = Half life in human liver microsomes; type: ADME, Microsome
[8] = biological target: CYP2C19 (Homo sapiens, UniProt P33261); test: Inhibition of CYP2C19 (unknown origin) at 10 uM relative to control; type: ADME
[9] = Thermodynamic solubility of the compound in PBS at pH 7.4; type: physicochemical; conditions: read-out: Therm_solubility
[10] = biological target: T1, Adenylate cyclase type 8; test: Inhibition of Ca2+/ CAM stimulated human AC8 expressed in AC3 and AC6-knockout HEK293 cells assessed as A23187 stimulated cAMP accumulation at 10 uM incubated for 30 mins followed by […] in presence of IBMX for 1 hr by HTRF assay relative to control; type: cell-based; conditions: time 90.0 min
[11] = system: Mus musculus; test: Antiallodynic activity against CFA-induced C57BL/6N mouse inflammatory pain model assessed as inhibition of inflammatory mechanical allodynia at 5.6 mg/kg, ip measured at 1 hr post treatment by von Frey test; type: functional, organism-based
[12] = biological target: CYP2D6 (Homo sapiens, UniProt P10635); test: Inhibition of CYP2D6 (unknown origin) at 10 uM relative to control; type: ADME
[13] = Intrinsic clearance in human liver microsomes; type: ADME, Microsome
[14] = biological target: Voltage-gated inwardly rectifying potassium channel KCNH2 (Homo sapiens, UniProt Q12809); test: Displacement of [3H]astemizole from human ERG expressed in HEK293 cell membrane at 10 uM by Radiometric displacement assay relative to control; type: toxicity, cell membranes; conditions: hek293, 10 µM
[15] = biological target: CYP3A4 (Homo sapiens, UniProt P08684); test: Inhibition of CYP3A4 (unknown origin) at 10 uM relative to control; type: ADME
[16] = Metabolic stability in human liver microsomes assessed as compound remaining after 45 mins; type: ADME, Microsome; conditions: 0.75 h
[17] = system: HEK293; test: Cytotoxicity against HEK293 cells assessed as reduction in cell viability at 30 uM incubated for 1 hr by cell titer glo assay; type: toxicity, cell-based; conditions: human, hek293, 1 h
[18] = Metabolic stability in human liver microsomes assessed as compound remaining after 30 mins; type: ADME, Microsome; conditions: 0.5 h
[19] = Metabolic stability in human liver microsomes assessed as compound remaining after 15 mins; type: ADME, Microsome; conditions: 0.25 h
[20] = biological target: CYP2C9 (Homo sapiens, UniProt P11712); test: Inhibition of CYP2C9 (unknown origin) at 10 uM relative to control; type: ADME
[21] = Metabolic stability in human liver microsomes assessed as compound remaining after 60 mins; type: ADME, Microsome; conditions: 1 h
[22] = system: Mus musculus; test: Antiallodynic activity against CFA-induced C57BL/6N mouse inflammatory pain model assessed as inhibition of inflammatory mechanical allodynia at 5.6 mg/kg, ip measured over 2 hrs post treatment by von Frey test; type: functional, organism-based
[23] = biological target: Vascular endothelial growth factor receptor 2 (Homo sapiens) (UniProt P35968); test: Inhibition of human recombinant VEGFR2 assessed as inhibition of phosphorylation activity at 10 uM using 33P-labeleled peptide substrate by radiometric scintillation counting assay relative to control
[24] = biological target: 5-hydroxytryptamine receptor 2B (Homo sapiens, UniProt P41595); test: Binding affinity to 5-HT2B receptor (unknown origin) assessed as displacement of radioligand at 10 uM by radioligand binding assay
Chain of 5-hydroxytryptamine receptor 2B (P41595 whole entry): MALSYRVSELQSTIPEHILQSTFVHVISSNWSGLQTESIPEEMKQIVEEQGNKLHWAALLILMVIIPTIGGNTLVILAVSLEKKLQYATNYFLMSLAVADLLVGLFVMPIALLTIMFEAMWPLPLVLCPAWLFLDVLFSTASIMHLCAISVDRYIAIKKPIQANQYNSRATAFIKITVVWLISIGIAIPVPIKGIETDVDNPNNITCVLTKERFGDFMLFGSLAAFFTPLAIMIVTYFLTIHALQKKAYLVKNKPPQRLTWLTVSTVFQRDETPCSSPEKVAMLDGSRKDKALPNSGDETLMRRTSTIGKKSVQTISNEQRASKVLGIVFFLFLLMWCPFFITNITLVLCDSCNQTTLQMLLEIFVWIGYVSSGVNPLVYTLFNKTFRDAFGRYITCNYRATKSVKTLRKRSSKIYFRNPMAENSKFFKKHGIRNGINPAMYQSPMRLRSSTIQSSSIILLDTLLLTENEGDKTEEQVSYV

T1 sequence (P40145 whole entry): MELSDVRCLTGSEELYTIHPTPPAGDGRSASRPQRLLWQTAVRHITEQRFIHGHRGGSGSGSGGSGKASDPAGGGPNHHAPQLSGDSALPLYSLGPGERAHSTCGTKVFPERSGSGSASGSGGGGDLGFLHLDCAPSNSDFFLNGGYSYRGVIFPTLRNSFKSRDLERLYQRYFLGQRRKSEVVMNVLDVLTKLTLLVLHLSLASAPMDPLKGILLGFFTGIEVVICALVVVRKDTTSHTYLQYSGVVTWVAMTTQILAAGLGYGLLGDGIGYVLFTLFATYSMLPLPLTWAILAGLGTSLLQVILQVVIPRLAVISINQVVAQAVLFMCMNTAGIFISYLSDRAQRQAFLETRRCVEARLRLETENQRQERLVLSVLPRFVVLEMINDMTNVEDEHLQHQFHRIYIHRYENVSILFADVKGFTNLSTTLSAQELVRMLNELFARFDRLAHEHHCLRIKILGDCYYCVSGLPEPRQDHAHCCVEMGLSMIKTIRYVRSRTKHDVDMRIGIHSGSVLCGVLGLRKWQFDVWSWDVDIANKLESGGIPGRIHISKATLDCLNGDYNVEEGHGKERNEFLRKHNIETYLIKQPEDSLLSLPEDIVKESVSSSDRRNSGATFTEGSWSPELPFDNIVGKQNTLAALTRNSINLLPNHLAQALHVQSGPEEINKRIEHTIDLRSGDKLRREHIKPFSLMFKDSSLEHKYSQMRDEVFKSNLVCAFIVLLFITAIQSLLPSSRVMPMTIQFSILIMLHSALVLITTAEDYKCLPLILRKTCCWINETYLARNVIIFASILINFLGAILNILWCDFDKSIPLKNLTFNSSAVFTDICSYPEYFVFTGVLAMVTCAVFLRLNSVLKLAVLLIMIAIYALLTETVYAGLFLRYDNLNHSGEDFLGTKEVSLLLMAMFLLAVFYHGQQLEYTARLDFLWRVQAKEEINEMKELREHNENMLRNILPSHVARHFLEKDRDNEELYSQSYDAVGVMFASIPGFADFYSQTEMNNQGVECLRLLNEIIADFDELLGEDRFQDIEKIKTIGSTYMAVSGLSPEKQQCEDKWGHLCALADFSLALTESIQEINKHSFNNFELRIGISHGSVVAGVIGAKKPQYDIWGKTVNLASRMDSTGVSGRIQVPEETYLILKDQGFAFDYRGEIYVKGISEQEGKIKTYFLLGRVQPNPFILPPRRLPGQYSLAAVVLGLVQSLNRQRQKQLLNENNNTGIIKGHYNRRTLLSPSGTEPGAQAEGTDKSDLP
Chain of Adenylate cyclase type 1 (Q08828 whole entry): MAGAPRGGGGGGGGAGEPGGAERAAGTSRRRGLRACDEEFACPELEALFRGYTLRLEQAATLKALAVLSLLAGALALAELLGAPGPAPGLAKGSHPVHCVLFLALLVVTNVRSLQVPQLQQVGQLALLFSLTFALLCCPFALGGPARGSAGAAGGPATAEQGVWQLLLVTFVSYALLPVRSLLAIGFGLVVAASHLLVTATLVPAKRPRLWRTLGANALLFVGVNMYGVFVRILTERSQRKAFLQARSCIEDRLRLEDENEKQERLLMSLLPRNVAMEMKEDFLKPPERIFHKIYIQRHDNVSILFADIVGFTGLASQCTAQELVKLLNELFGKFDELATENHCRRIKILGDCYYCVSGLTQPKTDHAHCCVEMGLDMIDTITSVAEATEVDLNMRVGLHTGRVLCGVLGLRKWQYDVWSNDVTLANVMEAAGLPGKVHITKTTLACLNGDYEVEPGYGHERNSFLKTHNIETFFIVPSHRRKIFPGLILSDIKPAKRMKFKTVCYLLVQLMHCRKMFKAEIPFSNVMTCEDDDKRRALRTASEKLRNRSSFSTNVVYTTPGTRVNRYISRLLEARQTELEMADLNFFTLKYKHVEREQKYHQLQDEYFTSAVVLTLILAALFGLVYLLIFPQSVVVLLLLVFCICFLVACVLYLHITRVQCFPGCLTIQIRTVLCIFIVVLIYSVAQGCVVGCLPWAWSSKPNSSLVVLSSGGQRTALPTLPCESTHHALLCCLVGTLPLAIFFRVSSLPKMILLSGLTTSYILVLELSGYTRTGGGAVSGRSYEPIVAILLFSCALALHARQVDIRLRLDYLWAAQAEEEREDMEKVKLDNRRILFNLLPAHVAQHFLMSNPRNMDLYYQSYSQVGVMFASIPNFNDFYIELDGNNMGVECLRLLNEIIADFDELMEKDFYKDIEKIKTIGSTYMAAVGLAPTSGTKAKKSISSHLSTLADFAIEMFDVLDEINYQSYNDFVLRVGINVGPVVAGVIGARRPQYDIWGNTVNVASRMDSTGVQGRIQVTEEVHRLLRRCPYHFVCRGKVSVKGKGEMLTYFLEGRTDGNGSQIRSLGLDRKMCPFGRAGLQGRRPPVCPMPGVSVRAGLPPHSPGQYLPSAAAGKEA
Chain of Insulin receptor (Homo sapiens) (P06213 28-758 limits assumed): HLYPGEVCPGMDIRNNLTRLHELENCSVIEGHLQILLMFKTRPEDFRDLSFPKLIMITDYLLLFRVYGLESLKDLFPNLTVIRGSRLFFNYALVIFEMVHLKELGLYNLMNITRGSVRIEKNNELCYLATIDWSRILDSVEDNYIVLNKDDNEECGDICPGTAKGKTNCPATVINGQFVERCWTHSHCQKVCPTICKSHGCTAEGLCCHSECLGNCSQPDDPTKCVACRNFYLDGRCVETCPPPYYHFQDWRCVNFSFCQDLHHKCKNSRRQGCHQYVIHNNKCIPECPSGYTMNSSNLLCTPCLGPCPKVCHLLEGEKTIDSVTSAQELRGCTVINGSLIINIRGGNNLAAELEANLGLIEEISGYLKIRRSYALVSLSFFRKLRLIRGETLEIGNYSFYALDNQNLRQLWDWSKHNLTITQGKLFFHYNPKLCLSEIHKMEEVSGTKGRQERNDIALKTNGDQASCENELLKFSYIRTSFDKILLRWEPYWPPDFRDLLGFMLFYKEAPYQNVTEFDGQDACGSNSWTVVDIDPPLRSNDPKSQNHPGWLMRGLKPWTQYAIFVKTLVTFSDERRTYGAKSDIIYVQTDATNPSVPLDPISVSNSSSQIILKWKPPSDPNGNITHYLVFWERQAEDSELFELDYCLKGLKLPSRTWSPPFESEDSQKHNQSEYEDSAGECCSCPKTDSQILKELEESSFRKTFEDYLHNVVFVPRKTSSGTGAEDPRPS
Chain of Insulin receptor (Homo sapiens) (P06213 763-1382 limits assumed): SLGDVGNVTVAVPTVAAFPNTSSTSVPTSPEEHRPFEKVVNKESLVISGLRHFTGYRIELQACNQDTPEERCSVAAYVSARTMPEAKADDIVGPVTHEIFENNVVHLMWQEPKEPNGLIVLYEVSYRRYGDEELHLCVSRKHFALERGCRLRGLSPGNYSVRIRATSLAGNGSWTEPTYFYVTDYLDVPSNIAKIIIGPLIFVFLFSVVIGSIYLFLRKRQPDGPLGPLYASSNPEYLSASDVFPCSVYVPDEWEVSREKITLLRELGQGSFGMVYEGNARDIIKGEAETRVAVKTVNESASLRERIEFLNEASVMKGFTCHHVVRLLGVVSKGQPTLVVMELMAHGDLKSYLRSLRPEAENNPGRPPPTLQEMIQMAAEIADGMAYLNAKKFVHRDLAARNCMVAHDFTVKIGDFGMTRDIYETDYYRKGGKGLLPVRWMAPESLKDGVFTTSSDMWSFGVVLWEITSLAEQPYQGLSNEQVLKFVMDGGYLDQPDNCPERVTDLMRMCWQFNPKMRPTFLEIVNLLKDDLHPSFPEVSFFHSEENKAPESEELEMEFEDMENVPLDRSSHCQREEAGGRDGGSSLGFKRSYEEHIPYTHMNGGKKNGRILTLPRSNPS
Chain of CYP2C19 (P33261 whole entry): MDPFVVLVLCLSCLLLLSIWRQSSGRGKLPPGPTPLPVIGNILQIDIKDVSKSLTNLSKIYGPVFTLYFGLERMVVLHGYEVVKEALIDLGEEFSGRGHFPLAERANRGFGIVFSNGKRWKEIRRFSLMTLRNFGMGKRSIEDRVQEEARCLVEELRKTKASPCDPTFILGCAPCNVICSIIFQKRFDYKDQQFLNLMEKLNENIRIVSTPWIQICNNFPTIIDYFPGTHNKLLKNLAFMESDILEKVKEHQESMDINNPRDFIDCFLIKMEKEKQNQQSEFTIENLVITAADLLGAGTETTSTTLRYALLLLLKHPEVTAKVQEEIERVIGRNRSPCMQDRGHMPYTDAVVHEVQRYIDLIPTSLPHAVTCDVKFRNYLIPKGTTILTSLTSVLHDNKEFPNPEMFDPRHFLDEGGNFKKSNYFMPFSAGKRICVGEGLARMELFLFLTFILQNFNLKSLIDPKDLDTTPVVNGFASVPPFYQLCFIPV

Compound	IC50 [1] [nM]	IC50 [2] [nM]	inhibition [3] [%]	further results
CCc1cc(=O)[nH]c(-n2nc(C)cc2NC(=O)c2cccc(C)c2F)n1	570	> 60000	9	
CCc1cc(=O)[nH]c(-n2nc(C)cc2NC(=O)c2ccc(C)cc2)n1	670	> 60000	27	
CCc1cc(=O)[nH]c(-n2nc(C)cc2NC(=O)c2ccc(F)cc2)n1	790	780	52	
CCc1cc(=O)[nH]c(-n2nc(C)cc2NC(=O)c2ccc(Cl)cc2)n1	360	2500	53	
CCc1cc(=O)[nH]c(-n2nc(C)cc2NC(=O)c2cccc(Br)c2)n1	610	2100	15	
CCc1cc(=O)[nH]c(-n2nc(C)cc2NC(=O)c2ccccc2)n1	2800	35900	0	
CCc1cc(=O)[nH]c(-n2nc(C)cc2NC(=O)c2cccc(OC)c2)n1	1420	9600	5	
CCc1cc(=O)[nH]c(-n2nc(C)cc2NC(=O)c2ccccc2C)n1	2200	15700	11	
CCc1cc(=O)[nH]c(-n2nc(C)cc2NC(=O)c2ccc(OC)cc2)n1		> 60000	0	
CCOc1cccc(C(=O)Nc2cc(C)nn2-c2nc(CC)cc(=O)[nH]2)c1	900	4400	11	
CCc1cc(=O)[nH]c(-n2nc(C)cc2NC(=O)c2ccccn2)n1		2800	46	
CCc1cc(=O)[nH]c(-n2nc(C)cc2NC(=O)c2cccc(Cl)c2)n1	470	1000	48	
CCc1cc(=O)[nH]c(-n2nc(C)cc2NC(=O)c2ccc(-c3ccccc3)cc2)n1	770	700	32	
CCc1cc(=O)[nH]c(-n2nc(C)cc2NC(=O)c2ccco2)n1	6700	15700	20	
CCc1cc(=O)[nH]c(-n2nc(C)cc2NC(=O)c2cccc(C(F)(F)F)c2)n1	680	1300	41	
CCc1cc(=O)[nH]c(-n2nc(C)cc2NC(=O)c2cc(C)ccc2F)n1				inhibition at 10 µM [4]: 8.7%; Papp [5]: 2.21 ×10⁻⁶ cm/s; inhibition [6]: 64%; t1/2 [7]: 51.2 min; inhibition at 10 µM [8]: 1.8%; solubility thermodynamic [9]: 33.6 µM (≈ 11.9 µg/mL); inhibition [10]: Active; Activity [11]: Active; inhibition at 10 µM [12]: 0.3%; CLH [13]: 136.7 µL/min/mg; inhibition (INH) [14]: 6%; inhibition at 10 µM [15]: -0.9%; Stability [16]: 57.5%; Activity [17]: Non-Toxic; Stability [18]: 67.4%; Stability [19]: 88.3%; inhibition at 10 µM [20]: -0.2%; Stability [21]: 44.5%
CCc1cc(=O)[nH]c(-n2nc(C)cc2NC(=O)c2cccc(F)c2)n1	1400	1600	55	
CCc1cc(=O)[nH]c(-n2nc(C)cc2NC(=O)c2cccc(SC)c2)n1	630	1300	52	
CN1CC[C@]23c4c5ccc(O)c4O[C@H]2[C@@H](O)C=C[C@H]3[C@H]1C5				Activity [22]: Active

Compound	IC50 [1] [nM]	IC50 [2] [nM]	inhibition [3] [%]	further results
CCc1cc(=O)[nH]c(-n2nc(C)cc2NC(=O)Cc2cccc(C)c2)n1	9200	> 60000	59	
CCc1cc(=O)[nH]c(-n2nc(C)cc2NC(=O)c2cc(C)cc(C)c2)n1	520	1700	27	
CCc1cccc(C(=O)Nc2cc(C)nn2-c2nc(CC)cc(=O)[nH]2)c1	440	3500	12	inhibition [6]: 57%; solubility thermodynamic [9]: 10.8 µM (≈ 3.8 µg/mL); inhibition [10]: Active; inhibition [23]: 28%; Activity [17]: Non-Toxic; inhibition ([24]; filed as antagonist): 49%
CCc1cc(=O)[nH]c(-n2nc(C)cc2NC(=O)c2cccc(C3CC3)c2)n1	810	1900	17	
CCc1cc(=O)[nH]c(-n2nc(C)cc2NC(=O)c2cccc(C)c2)n1	410	2700	27	solubility thermodynamic [9]: 19.5 µM (≈ 6.58 µg/mL); inhibition [10]: Active; Activity [17]: Non-Toxic; Ki [24]: 900 nM
CCc1cc(=O)[nH]c(-n2nc(C)cc2NC(=O)Cc2ccccc2F)n1	16300	3400		
CCc1ccc(C(=O)Nc2cc(C)nn2-c2nc(CC)cc(=O)[nH]2)cc1	390	6600	19	
CCc1cc(=O)[nH]c(-n2nc(C)cc2NC(=O)c2cccc(-c3ccccc3)c2)n1	250	570	37	
CCc1cc(=O)[nH]c(-n2nc(C)cc2NC(=O)c2ccc(C)c(C)c2)n1	290	710	27	inhibition [6]: 4%; solubility thermodynamic [9]: 7.6 µM (≈ 2.67 µg/mL); inhibition [10]: Active; inhibition (INH) [14]: 11%; Activity [17]: Non-Toxic; inhibition [24]: 32%
CCc1cc(=O)[nH]c(-n2nc(C)cc2NC(=O)c2ccc(C(C)(C)C)cc2)n1	970	1200	35	
CCc1cc(=O)[nH]c(-n2nc(C)cc2NC(=O)c2cccc(C(C)C)c2)n1	360	2600	28	
CCc1cc(=O)[nH]c(-n2nc(C)cc2NC(C)=O)n1	> 30000	10600		
CCc1cc(=O)[nH]c(-n2nc(C)cc2NC(=O)c2ccc(OCOC)cc2)n1	4300	> 30000		
CCc1cc(=O)[nH]c(-n2nc(C)cc2NC(=O)c2ccc(O)cc2)n1	> 60000	> 60000		
CCc1cc(=O)[nH]c(-n2nc(C)cc2NC(=O)c2ccccc2F)n1	1400	1900	46	inhibition [10]: Active; Activity [17]: Non-Toxic; Ki [24]: 1300 nM
CCc1cc(=O)[nH]c(-n2nc(C)cc2NC(=O)c2ccc(N(C)C)cc2)n1	2300	1000	39	
CCc1cc(=O)[nH]c(-n2nc(C)cc2NC(=O)c2cccc(C(C)(C)C)c2)n1	880	380	25	
CCc1cc(=O)[nH]c(-n2nc(C)cc2NC(=O)c2ccccc2CC)n1	3100	> 60000	21	
